Experimental data: patent publication US9642925B2, “Magnetic nanoparticle formulations, methods for making such formulations, and methods for their use” (Sanford Research/USD, priority 2010, dated 2017)

Assays:
[1] = system: MCL-1; assay: IHC of MCL-1 expression in pancreatic tumor xenografts; format: in vivo, athymic nude mice; conditions: intra-tumoral at day 20
Description: (§1) FIG. 15. The effect of MNP-curcumin formulation on the expression of Bcl-xL and MCL-1 oncogenes in pancreatic tumor xenografts. Pancreatic tumor xenografts were generated in athymic nude mice by subcutaneous (sc) injection of HPAFII human pancreatic cancer cells. […] The presence of MNPs (iron) in tumors was determined by Prussian Blue staining. Original Magnifications 200×.
(§2) We then tested to effect of MNP-curcumin formulation on the expression of Bcl-xL and MCL-1 oncogenes in pancreatic tumor xenografts. Pancreatic tumor xenografts were generated in athymic nude mice by subcutaneous (sc) injection of HPAFII human pancreatic cancer cells.

[2] = system: PC3 prostate cancer cells; assay: In vitro cytotoxicity (MTT assay), PC3; format: cell-based; conditions: 48 h; PC3, 2 days; read-out: IC50 (50% cell growth inhibitory concentration)
Description: (§3) In vitro cytotoxicity was assessed using a standard 3-(4,5-dimethylthiazol-2-yl)-2,5-diphenyltetrazolium bromide (MTT) based colorimetric assay (CellTiter 96 AQeous, Promega, Madison, Wis., USA). Ovarian (A2780CP), breast (MDA-MB-231), and prostate (PC3) cancer cells were used for this experiment. Cells (5000 cells/well in 100 μl media) were cultured in RPMI-1640 or DMEM medium containing 10% FBS and 1% penicillin-streptomycin in 96-well plates and allowed to attach overnight. The media was replaced with fresh media containing different concentrations (2.5-40 μM) of CUR and CUR containing MNPs (F127250-CUR). Equivalent amounts of DMSO or F127250 MNPs without drug in PBS were used as control. These plates were incubated at 37° C. for 2 days. After day 2, the media was replaced with 100 μl fresh media and the MTT reagent (25 μl/well) was added to each well and plates were incubated for 3 hrs at 37° C. in an incubator. The color intensity was measured at 492 nm using a microplate reader (BioMate 3 UV-Vis Spectrophotometer, Thermo Electron Corporation, Hudson, N.H., USA). The anti-proliferation potential of CUR and F127250-CUR treatments was calculated as a percentage of cell growth with respect to the DMSO and F127250 formulation in PBS controls. Standard deviations were obtained from 6 replicates.

[3] = system: PARP; assay: Western blot for PARP cleavage in PC3 cells; format: cell-based; conditions: 20 μM
Description: The immunoblot analyses were performed to determine anti-cancer effects of our formulation at the molecular level. For these experiments, cancer cells were collected after 2 days of treatment with 10 μM and 20 μM CUR and 10 μM and 20 μM of F127250-CUR and processed for protein extraction and Western blotting using standard procedures. The cell lysates were separated by gel electrophoresis on polyacrylamide gels containing sodium dodecyl sulfate and then transferred to PVDF membranes. The membranes were blocked with Tris-buffered saline (TBS) containing 5% (w/v) skimmed milk. After washing thrice with Tween 20, the membranes were incubated overnight with primary antibody specific to Bcl-xL or PARP at 4° C. After washing, the membranes were incubated for 1 hr with secondary antibody (Promega, Madison Wis., USA). Protein bands were visualized using the Lumi-Light Detection Kit (Roche, Nutley, N.J., USA) and detected with a BioRad Gel Doc (BioRad, Hercules, Calif., USA).

[4] = system: A2780CP ovarian cancer cells; assay: In vitro cytotoxicity (MTT assay), A2780CP; format: cell-based; conditions: A2780C/P, 48 h, 2 days, read-out: IC50 (50% cell growth inhibitory concentration)
Description: as §3

[5] = system: Bcl-xL; assay: IHC of Bcl-xL expression in pancreatic tumor xenografts; format: in vivo, athymic nude mice; conditions: intra-tumoral at day 20
Description: as §1, §2

[6] = system: MDA-MB-231 breast cancer cells; assay: In vitro cytotoxicity (MTT assay), MDA-MB-231; format: cell-based; conditions: Homo sapiens, 48 h; MDA-MB-231, 2 days; read-out: IC50 (50% cell growth inhibitory concentration)
Description: as §3

[7] = system: PC3 cancer cells; assay: Ultrastructural changes in cancer cells by TEM; format: cell-based; conditions: 20 μM
Description: The uptake (internalization) pattern of nanoparticles was monitored by transmission electron microscopy (TEM) to further validate the cellular uptake capability of magnetic nanoparticles in cancer cells which was visually observed. For this experiment, aforementioned cells (1×10^7 cells per 150 mm plate) were incubated with 1 mg of particles in 20 ml media for 6 hrs. The treated cells were centrifuged and fixed with standard formaldehyde (4%)-glutaraldehyde (1%) fixative solution followed by OsO4 fixative solution. Next, cells were dehydrated in a graded series of acetone and embedded in Spurr resin. These cell-containing resin blocks were sectioned using an ultramicrotome and ultrathin sections (70-90 nm thickness) were transferred onto TEM grid (grid size: 97 μm) (Ted Pella Inc., Redding, Calif., USA). The grids were processed with uranyl acetate and lead acetate solutions to visualize cellular ultra structures.
The variation of ultrastructural changes in the cancer cells upon exposure to control (DMSO and F127250 formulation), 20 μM CUR or 20 μM F127250-CUR were observed by transmission electron microscopy (TEM) analysis.

Question: What does the source list for `COc1cc(/C=C/C(=O)CC(=O)/C=C/c2ccc(O)c(OC)c2)ccc1O` [curcumin, (E,E)-1,7-bis(4-Hydroxy-3-methoxyphenyl)-1,6-heptadiene-3,5-dione]?
Answer: expression of MCL-1 oncogene in tumor xenografts [1]: effectively inhibited the expression; IC50 [2]: 10.6 µM; PARP cleavage [3]: considerable cleavage; IC50 [4]: 12.6 µM; expression of Bcl-xL oncogene in tumor xenografts [5]: effectively inhibited the expression; IC50 [6]: 18.8 µM; ultrastructural changes (vacuole formation) [7]: formation of endosomal-lysosomal-vacules
